Our source for the EC50 values is patent US20100204265A1 (priority 2009, published 2010).

A word on the EC50: it is the midpoint of the concentration-response curve. A higher EC50 goes with lower potency in that assay.

In this experiment the test system is ET (Huh-lucubineo-ET) cell line harboring I389luc-ubi-neo/NS3-3′/ET HCV replicon. The experiment can be described thus: Replicon assay (HCV replicon, luciferase readout). It counts as cell-based. The conditions noted are these: Hepatitis C virus. In short, it runs like this:
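Compounds at 10-point 2-fold dilutions (overall 0.1 nM to […], 0.5% DMSO) were applied to ET cells carrying a luciferase-neo HCV replicon, seeded a day earlier. After 48-72 hours, luciferase-based % inhibition was fitted with a Hill equation for EC50, and parallel WST-1 readings gave TC50.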
On the technique in general: In antiviral work, replicon cells carry a viral genome segment that copies itself.
The molecule `CSCCC(NC(=O)c1cn2cc(-c3ccoc3)cc(C(F)(F)F)c2n1)C(=O)O` (stereo not drawn) [Compound 266, 2-[(6-Furan-3-yl-8-trifluoromethyl-imidazo[1,2-a]pyridine-2-carbonyl)-amino]-4-methylsulfanyl-butyric acid] registered an EC50 above 50 µM. In the case of `O=C(NC(CO)C(=O)O)c1cn2cc(-c3ccoc3)cc(C(F)(F)F)c2n1` (stereo not drawn) [Compound 267, 2-[(6-Furan-3-yl-8-trifluoromethyl-imidazo[1,2-a]pyridine-2-carbonyl)-amino]-3-hydroxy-propionic acid] it was above 50 µM; in that of `O=C(c1nc2c(C(F)(F)F)cc(-c3ccoc3)cn2c1Cl)N1CCC(S(=O)(=O)c2ccccc2)CC1` [Compound 268, (4-Benzenesulfonyl-piperidin-1-yl)-(3-chloro-6-furan-3-yl-8-trifluoromethyl-imidazo[1,2-a]pyridin-2-yl)-methanone], above 50 µM; in that of `CC(O)C(NC(=O)c1cn2cc(-c3ccoc3)cc(C(F)(F)F)c2n1)C(=O)O` (stereo not drawn) [Compound 269, 2-[(6-Furan-3-yl-8-trifluoromethyl-imidazo[1,2-a]pyridine-2-carbonyl)-amino]-3-hydroxy-butyric acid], above 50 µM.

In the case of `CC(C)CC(NC(=O)c1cn2cc(-c3ccoc3)cc(C(F)(F)F)c2n1)C(=O)O` (stereo not drawn) [Compound 270, 2-[(6-Furan-3-yl-8-trifluoromethyl-imidazo[1,2-a]pyridine-2-carbonyl)-amino]-4-methyl-pentanoic acid], the EC50 was above 50 µM.

In the case of `O=C(NC(C(=O)O)c1ccccc1)c1cn2cc(-c3ccoc3)cc(C(F)(F)F)c2n1` (stereo not drawn) [Compound 271, [(6-Furan-3-yl-8-trifluoromethyl-imidazo[1,2-a]pyridine-2-carbonyl)-amino]-phenyl-acetic acid], the EC50 was above 50 µM. The molecule `CC(C)C(NC(=O)c1cn2cc(-c3ccoc3)cc(C(F)(F)F)c2n1)C(=O)O` (stereo not drawn) [Compound 272, 2-[(6-Furan-3-yl-8-trifluoromethyl-imidazo[1,2-a]pyridine-2-carbonyl)-amino]-3-methyl-butyric acid] showed an EC50 above 50 µM.

`CC(C)(C)C(NC(=O)c1cn2cc(-c3ccoc3)cc(C(F)(F)F)c2n1)C(=O)O` (stereo not drawn) [Compound 273, 2-[(6-Furan-3-yl-8-trifluoromethyl-imidazo[1,2-a]pyridine-2-carbonyl)-amino]-3,3-dimethyl-butyric acid] gave an EC50 above 50 µM. `O=C(Cc1cccs1)NCCc1cn2cc(-c3ccoc3)cc(C(F)(F)F)c2n1` [Compound 274, N-[2-(6-Furan-3-yl-8-trifluoromethyl-imidazo[1,2-a]pyridin-2-yl)-ethyl]-2-thiophen-2-yl-acetamide] had an EC50 above 50 µM. As to `O=C(NCCc1cn2cc(-c3ccoc3)cc(C(F)(F)F)c2n1)C1CC1` [Compound 275, Cyclopropanecarboxylic acid [2-(6-furan-3-yl-8-trifluoromethyl-imidazo[1,2-a]pyridin-2-yl)-ethyl]-amide], the EC50 was above 50 µM. `COC(=O)CCNC(=O)c1cn2cc(-c3ccoc3)cc(C(F)(F)F)c2n1` [Compound 276, 3-[(6-Furan-3-yl-8-trifluoromethyl-imidazo[1,2-a]pyridine-2-carbonyl)-amino]-propionic acid methyl ester] had an EC50 above 50 µM.

Consider `CC(NC(=O)c1cn2cc(-c3ccoc3)cc(C(F)(F)F)c2n1)C(N)=O` (stereo not drawn) [Compound 277, 6-Furan-3-yl-8-trifluoromethyl-imidazo[1,2-a]pyridine-2-carboxylic acid (1-carbamoyl-ethyl)-amide], for which the EC50 was above 50 µM. Molecule `CC(C)C(NC(=O)c1cn2cc(-c3ccoc3)cc(C(F)(F)F)c2n1)C(N)=O` (stereo not drawn) [Compound 278, 6-Furan-3-yl-8-trifluoromethyl-imidazo[1,2-a]pyridine-2-carboxylic acid (1-carbamoyl-2-methyl-propyl)-amide] had an EC50 above 50 µM.

`NC(=O)C(CO)NC(=O)c1cn2cc(-c3ccoc3)cc(C(F)(F)F)c2n1` (stereo not drawn) [Compound 279, 6-Furan-3-yl-8-trifluoromethyl-imidazo[1,2-a]pyridine-2-carboxylic acid (1-carbamoyl-2-hydroxy-ethyl)-amide] gave a concentration giving a half-maximal response (EC50) above 50 µM. On to `NC(=O)C1CCCN1C(=O)c1cn2cc(-c3ccoc3)cc(C(F)(F)F)c2n1` (stereo not drawn) [Compound 280, 1-(6-Furan-3-yl-8-trifluoromethyl-imidazo[1,2-a]pyridine-2-carbonyl)-pyrrolidine-2-carboxylic acid amide], for which the half-maximal effective concentration (EC50) was above 50 µM. Under `CN(C)C(=O)C1CCCN1C(=O)c1cn2cc(-c3ccoc3)cc(C(F)(F)F)c2n1` (stereo not drawn) [Compound 281, 1-(6-Furan-3-yl-8-trifluoromethyl-imidazo[1,2-a]pyridine-2-carbonyl)-pyrrolidine-2-carboxylic acid dimethylamide] stands above 50 µM; under `CC(O)C(NC(=O)c1cn2cc(-c3ccoc3)cc(C(F)(F)F)c2n1)C(N)=O` (stereo not drawn) [Compound 282, 6-Furan-3-yl-8-trifluoromethyl-imidazo[1,2-a]pyridine-2-carboxylic acid (1-carbamoyl-2-hydroxy-propyl)-amide], above 50 µM. With `O=C(NCCc1cn2cc(-c3ccoc3)cc(C(F)(F)F)c2n1)Nc1ccccc1` [Compound 283, 1-[2-(6-Furan-3-yl-8-trifluoromethyl-imidazo[1,2-a]pyridin-2-yl)-ethyl]-3-phenyl-urea], the EC50 was above 50 µM. Under `CC(=O)N1CCCC1C(=O)NCc1cn2cc(-c3ccoc3)cc(C(F)(F)F)c2n1` (stereo not drawn) [Compound 284, 1-Acetyl-pyrrolidine-2-carboxylic acid (6-furan-3-yl-8-trifluoromethyl-imidazo[1,2-a]pyridin-2-ylmethyl)-amide] stands above 50 µM; under `O=C(O)CCNC(=O)c1cn2cc(-c3ccoc3)cc(C(F)(F)F)c2n1` [Compound 285, 3-[(6-Furan-3-yl-8-trifluoromethyl-imidazo[1,2-a]pyridine-2-carbonyl)-amino]-propionic acid], above 50 µM; under `O=C(NC(Cc1ccccc1)C(=O)O)c1cn2cc(-c3ccoc3)cc(C(F)(F)F)c2n1` (stereo not drawn) [Compound 286, 2-[(6-Furan-3-yl-8-trifluoromethyl-imidazo[1,2-a]pyridine-2-carbonyl)-amino]-3-phenyl-propionic acid], above 50 µM. Under `CSCCC(NC(C)=O)C(=O)NCc1cn2cc(-c3ccoc3)cc(C(F)(F)F)c2n1` (stereo not drawn) [Compound 287, 2-Acetylamino-N-(6-furan-3-yl-8-trifluoromethyl-imidazo[1,2-a]pyridin-2-ylmethyl)-4-methylsulfanyl-butyramide] stands above 50 µM; under `CC(=O)N[C@H](C(=O)NCc1cn2cc(-c3ccoc3)cc(C(F)(F)F)c2n1)C(C)C` [Compound 288, 2-Acetylamino-N-(6-furan-3-yl-8-trifluoromethyl-imidazo[1,2-a]pyridin-2-ylmethyl)-3-methyl-butyramide], above 50 µM. `CC(=O)NC(C(=O)NCc1cn2cc(-c3ccoc3)cc(C(F)(F)F)c2n1)C(C)O` (stereo not drawn) [Compound 289, 2-Acetylamino-N-(6-furan-3-yl-8-trifluoromethyl-imidazo[1,2-a]pyridin-2-ylmethyl)-3-hydroxy-butyramide] showed an EC50 above 50 µM. In the case of `COC(=O)CNC(=O)Cc1cn2cc(-c3ccoc3)cc(C(F)(F)F)c2n1` [Compound 290, [2-(6-Furan-3-yl-8-trifluoromethyl-imidazo[1,2-a]pyridin-2-yl)-acetylamino]-acetic acid methyl ester] it was above 50 µM; in that of `COC(=O)C(CCSC)NC(=O)Cc1cn2cc(-c3ccoc3)cc(C(F)(F)F)c2n1` (stereo not drawn) [Compound 291, 2-[2-(6-Furan-3-yl-8-trifluoromethyl-imidazo[1,2-a]pyridin-2-yl)-acetylamino]-4-methylsulfanyl-butyric acid methyl ester], above 50 µM. Under `COC(=O)C(CO)NC(=O)Cc1cn2cc(-c3ccoc3)cc(C(F)(F)F)c2n1` (stereo not drawn) [Compound 292, 2-[2-(6-Furan-3-yl-8-trifluoromethyl-imidazo[1,2-a]pyridin-2-yl)-acetylamino]-3-hydroxy-propionic acid methyl ester] stands above 50 µM.

`COC(=O)C(Cc1cnc[nH]1)NC(=O)Cc1cn2cc(-c3ccoc3)cc(C(F)(F)F)c2n1` (stereo not drawn) [Compound 293, 2-[2-(6-Furan-3-yl-8-trifluoromethyl-imidazo[1,2-a]pyridin-2-yl)-acetylamino]-3-(3H-imidazol-4-yl)-propionic acid methyl ester] came in with an EC50 above 50 µM. With `COC(=O)CCNC(=O)Cc1cn2cc(-c3ccoc3)cc(C(F)(F)F)c2n1` [Compound 295, 3-[2-(6-Furan-3-yl-8-trifluoromethyl-imidazo[1,2-a]pyridin-2-yl)-acetylamino]-propionic acid methyl ester], the EC50 is above 50 µM. Turning to `CC(NC(=O)Cc1cn2cc(-c3ccoc3)cc(C(F)(F)F)c2n1)C(N)=O` (stereo not drawn) [Compound 296, 2-[2-(6-Furan-3-yl-8-trifluoromethyl-imidazo[1,2-a]pyridin-2-yl)-acetylamino]-propionamide], the EC50 was above 50 µM.

In turn, `CC(C)[C@H](NC(=O)Cc1cn2cc(-c3ccoc3)cc(C(F)(F)F)c2n1)C(N)=O` [Compound 297, 2-[2-(6-Furan-3-yl-8-trifluoromethyl-imidazol[1,2-a]pyridin-2-yl)-acetylamino]-3-methyl-butyramide] registered an EC50 above 50 µM. On to `CC(O)[C@H](NC(=O)Cc1cn2cc(-c3ccoc3)cc(C(F)(F)F)c2n1)C(N)=O` (stereo partly drawn) [Compound 299, 2-[2-(6-Furan-3-yl-8-trifluoromethyl-imidazo[1,2-a]pyridin-2-yl)-acetylamino]-3-hydroxy-butyramide], for which the EC50 is above 50 µM.

Turning to `NC(=O)CNC(=O)Cc1cn2cc(-c3ccoc3)cc(C(F)(F)F)c2n1` [Compound 300, N-Carbamoylmethyl-2-(6-furan-3-yl-8-trifluoromethyl-imidazo[1,2-a]pyridin-2-yl)-acetamide], the EC50 is above 50 µM.
